US20250263753A1, “BRIDGED CYCLE-BASED INHIBITORS OF DNA-DEPENDENT PROTEIN KINASE AND COMPOSITIONS AND APPLICATION IN GENE EDITING” (Juno Therapeutics, Inc., priority 2023, published 2025)
Where two headings read alike, the source gives them in different places.

Experiments:
ATM = ATM (Homo sapiens (Human), UniProt Q13315); assay: ATM biochemical assay (Reaction Biology HTRF kinase assay, 10 μM ATP)
Procedure: Ataxia-Telangiectasia Mutated (ATM) Biochemical Assay Using Reaction Biology's HTRF Kinase Assay Protocol:
The assay detects kinase activity by antibody based HTRF assay. The GST-tagged p53 protein serves as substrate and Eu-labeled-antibody with specific phosphorylation site binds upon phosphorylation which is monitored by HTRF from the anti-GST-d2.
Reagent: Reaction buffer; 50 mM Hepes (pH 7.5), 150 mM NaCl, 10 mM MnCl2, 1% Glycerol, 0.01% Brij35, 1 mM DTT, 1% DMSO.
Substrate: Human p53 (aa2-393), RBC produced in E. coli, N-terminal GST-Tag, MW=70.42 kDa.
Detection; MAb Anti-p53-pS15-Eu cryptate, CisBio cat #61P08KAZ; MAb Anti GST-d2
Reaction Procedure: 1. Deliver 2× Enzyme in wells of reaction plate except No E control wells. Add buffer instead; 2. Deliver compounds in 100% DMSO into the kinase reaction mixture by Acoustic technology (Echo550; nanoliter range), incubate for 30 min at room temperature; 3. Deliver 2× substrate+ATP mixture into the reaction mixture to initiate the reaction; 4. Incubate for 2 hours at room temperature.
HTRF Detection: 1. Deliver 2× Stop/Detection mixture and incubate for 2 hours to overnight in the dark. 2. HTRF measurement (Ex/Em1/Em2=320/615/665 nm) in EnVision.

[1] = molecular target: PI3Kδ (His-PIK3CD/PIK3R1, p110 delta/p85 alpha) (Homo sapiens (Human), UniProt O00329); assay: PI3Kδ biochemical assay (HTRF/FRET probe); format: binding
Procedure: Phosphoinositide 3-kinase (PI3K) Biochemical Assay: A solution was prepared containing 0.2 nM Anti-HIS-Terbium (Cisbio, 64CUSTAZU), 40 nM designed-probe and 1.0 nM His-PIK3CD/PIK3R1 (p110 delta/p85 alpha) in FRET Buffer (20 mM HEPES, 10 mM MgCl2, 0.015% Brij-35, 4 mM DTT, 0.05 mg/mL BSA).

DNA-PK = DNA-PK (Homo sapiens (Human), UniProt P78527); assay: DNA-PK biochemical assay (Reaction Biology HotSpot kinase assay, 10 μM ATP)
Procedure: DNA-PK Biochemical Assay Using Reaction Biology's HotSpot Kinase Assay Protocol:
Reagent: Base Reaction buffer; 20 mM Hepes (pH 7.5), 10 mM MgCl2, 1 mM EGTA, 0.01% Brij35, 0.02 mg/ml BSA, 0.1 mM Na3VO4, 2 mM DTT, 1% DMSO Required cofactors are added individually to each kinase reaction.
Reaction Procedure: 1. Prepare substrate in freshly prepared Reaction Buffer; 2. Deliver any required cofactors to the substrate solution above; 3. Deliver kinase into the substrate solution and gently mix; 4. Deliver compounds in 100% DMSO into the kinase reaction mixture by Acoustic technology (Echo550; nanoliter range), incubate for 20 min at room temperature; 5. Deliver 33P-ATP into the reaction mixture to initiate the reaction; 6. Incubate for 2 hours at room temperature; 7. Detect kinase activity by P81 filter-binding method.

[2] = molecular target: PI3Kα (His-PIK3CA/PIK3R1, p110 alpha/p85 alpha) (Homo sapiens (Human), UniProt P42336); assay: PI3Kα biochemical assay (HTRF/FRET probe); format: binding
Procedure: Phosphoinositide 3-kinase α (PI3Kα) Biochemical Assay: A solution was prepared containing 0.2 nM Anti-HIS-Terbium (Cisbio, 64CUSTAZU), 3.7 nM designed-probe and 1.0 nM His-PIK3CA/PIK3R1 (p110 alpha/p85 alpha) in FRET Buffer (20 mM HEPES, 10 mM MgCl2, 0.015% Brij-35, 4 mM DTT, 0.05 mg/mL BSA).

[3] = read-out: ATM HTRF 10 μM ATP IC50, class symbol
[4] = read-out: DNA-PK HotSpot 10 μM ATP IC50, class symbol

PI3Kδ (His-PIK3CD/PIK3R1, p110 delta/p85 alpha), sequence (O00329 whole entry, species assumed): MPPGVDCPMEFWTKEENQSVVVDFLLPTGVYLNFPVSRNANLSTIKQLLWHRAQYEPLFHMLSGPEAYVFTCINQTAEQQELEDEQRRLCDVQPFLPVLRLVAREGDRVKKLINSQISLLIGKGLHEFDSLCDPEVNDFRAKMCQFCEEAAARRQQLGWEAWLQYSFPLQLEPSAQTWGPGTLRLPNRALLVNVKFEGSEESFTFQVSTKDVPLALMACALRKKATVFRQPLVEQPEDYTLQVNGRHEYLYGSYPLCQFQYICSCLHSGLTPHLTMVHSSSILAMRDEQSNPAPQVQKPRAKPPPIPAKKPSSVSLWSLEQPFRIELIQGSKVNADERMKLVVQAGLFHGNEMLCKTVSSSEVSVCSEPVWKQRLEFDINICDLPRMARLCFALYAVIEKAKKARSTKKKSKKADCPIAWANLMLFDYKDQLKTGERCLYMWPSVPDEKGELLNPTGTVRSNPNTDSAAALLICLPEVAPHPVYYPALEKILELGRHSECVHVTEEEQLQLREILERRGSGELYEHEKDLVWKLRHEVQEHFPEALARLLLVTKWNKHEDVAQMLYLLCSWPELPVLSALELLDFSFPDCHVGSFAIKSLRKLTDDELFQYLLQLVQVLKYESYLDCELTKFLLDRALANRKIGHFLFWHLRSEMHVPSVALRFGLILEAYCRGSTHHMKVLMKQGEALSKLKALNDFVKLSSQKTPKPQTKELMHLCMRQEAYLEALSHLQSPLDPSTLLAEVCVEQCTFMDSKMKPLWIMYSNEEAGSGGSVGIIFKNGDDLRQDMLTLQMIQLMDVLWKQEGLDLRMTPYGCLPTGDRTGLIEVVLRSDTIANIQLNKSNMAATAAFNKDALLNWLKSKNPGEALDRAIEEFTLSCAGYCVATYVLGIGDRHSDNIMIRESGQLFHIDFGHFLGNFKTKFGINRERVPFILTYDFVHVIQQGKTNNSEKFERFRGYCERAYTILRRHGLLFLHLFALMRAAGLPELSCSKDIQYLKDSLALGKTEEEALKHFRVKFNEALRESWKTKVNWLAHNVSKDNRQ
PI3Kδ (His-PIK3CD/PIK3R1, p110 delta/p85 alpha), sequence (P27986 whole entry partner, species assumed): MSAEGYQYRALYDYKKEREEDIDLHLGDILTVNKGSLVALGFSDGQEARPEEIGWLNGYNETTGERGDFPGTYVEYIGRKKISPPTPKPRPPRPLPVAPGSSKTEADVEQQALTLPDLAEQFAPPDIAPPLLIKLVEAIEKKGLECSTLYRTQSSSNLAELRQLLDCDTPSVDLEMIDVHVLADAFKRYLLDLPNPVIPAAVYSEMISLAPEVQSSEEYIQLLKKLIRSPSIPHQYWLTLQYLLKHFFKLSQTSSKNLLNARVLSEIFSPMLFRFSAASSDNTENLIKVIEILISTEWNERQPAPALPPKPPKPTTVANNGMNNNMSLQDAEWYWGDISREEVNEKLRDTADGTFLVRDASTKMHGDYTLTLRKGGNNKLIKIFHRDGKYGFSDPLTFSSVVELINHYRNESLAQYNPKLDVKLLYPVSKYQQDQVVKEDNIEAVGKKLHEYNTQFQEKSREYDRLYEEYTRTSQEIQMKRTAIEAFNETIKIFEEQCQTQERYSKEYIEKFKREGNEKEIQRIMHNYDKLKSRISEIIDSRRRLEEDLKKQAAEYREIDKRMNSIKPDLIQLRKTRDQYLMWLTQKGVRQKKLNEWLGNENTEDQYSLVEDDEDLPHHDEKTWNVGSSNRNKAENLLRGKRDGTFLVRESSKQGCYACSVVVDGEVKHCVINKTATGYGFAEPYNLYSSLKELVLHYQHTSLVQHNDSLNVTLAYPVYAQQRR
PI3Kα (His-PIK3CA/PIK3R1, p110 alpha/p85 alpha), sequence (P42336 whole entry, species assumed): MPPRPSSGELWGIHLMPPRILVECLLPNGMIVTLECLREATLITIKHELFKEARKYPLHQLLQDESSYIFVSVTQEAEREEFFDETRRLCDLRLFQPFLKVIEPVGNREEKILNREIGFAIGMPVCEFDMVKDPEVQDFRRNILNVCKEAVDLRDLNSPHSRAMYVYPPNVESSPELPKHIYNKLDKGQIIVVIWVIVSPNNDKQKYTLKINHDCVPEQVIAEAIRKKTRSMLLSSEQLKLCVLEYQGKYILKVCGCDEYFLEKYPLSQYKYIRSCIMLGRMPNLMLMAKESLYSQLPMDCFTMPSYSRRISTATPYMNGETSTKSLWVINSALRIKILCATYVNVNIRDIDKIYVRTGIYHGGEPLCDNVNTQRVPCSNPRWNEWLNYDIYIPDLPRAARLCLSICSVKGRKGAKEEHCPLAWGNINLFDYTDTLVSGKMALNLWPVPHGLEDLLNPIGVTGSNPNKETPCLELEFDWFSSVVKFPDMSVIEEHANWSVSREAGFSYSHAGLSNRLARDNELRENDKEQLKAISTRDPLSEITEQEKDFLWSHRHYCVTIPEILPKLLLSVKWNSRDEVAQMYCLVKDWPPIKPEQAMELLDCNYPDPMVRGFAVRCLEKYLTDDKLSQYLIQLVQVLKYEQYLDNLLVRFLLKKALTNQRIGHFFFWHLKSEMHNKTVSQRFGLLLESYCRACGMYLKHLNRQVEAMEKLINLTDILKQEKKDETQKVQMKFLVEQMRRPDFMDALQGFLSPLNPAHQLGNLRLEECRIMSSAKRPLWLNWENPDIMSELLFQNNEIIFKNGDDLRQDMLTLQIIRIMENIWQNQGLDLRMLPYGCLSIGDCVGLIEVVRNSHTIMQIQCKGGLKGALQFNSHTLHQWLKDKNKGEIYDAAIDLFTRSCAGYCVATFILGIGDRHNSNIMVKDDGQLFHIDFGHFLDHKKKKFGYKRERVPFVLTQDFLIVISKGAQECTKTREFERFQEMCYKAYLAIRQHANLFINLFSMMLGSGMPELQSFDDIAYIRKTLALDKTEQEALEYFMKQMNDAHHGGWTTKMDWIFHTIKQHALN
PI3Kα (His-PIK3CA/PIK3R1, p110 alpha/p85 alpha), sequence (P27986 whole entry partner, species assumed): as the sequence (P27986 whole entry partner, species assumed) above

Row | Compound | IC50 (ATM; [3]) [µM] | IC50 ([1]; class symbol) [µM] | IC50 (DNA-PK; class symbol) [µM] | IC50 ([2]; class symbol) [µM] | IC50 (ATM; class symbol) [µM] | IC50 (DNA-PK; [4]) [µM] | IC50 (ATM; read-out: ATM HTRF 10 μM ATP IC50, numeric value) [µM] | IC50 ([1]; numeric value) [µM] | IC50 (DNA-PK; read-out: DNA-PK HotSpot 10 μM ATP IC50, numeric value) [µM] | IC50 ([2]; numeric value) [µM]
1 | Cc1cc2ncnn2cc1Nc1ncc2c(n1)n(C13CC(C(F)(F)F)(C1)C3)c(=O)n2C [Compound 18, 7-methyl-2-((7-methyl-[1,2,4]triazolo[1,5-a]pyridin-6-yl)amino)-9-(3-(trifluoromethyl)bicyclo[1.1.1]pentan-1-yl)-7,9-dihydro-8H-purin-8-one] |  | ≥ 1 | 0.001 to 0.01 | ≥ 1 | 0.001 to 0.01 |  |  |  |  | 
2 | Cc1cc(-c2cnn(C)c2)c(F)cc1Nc1ncc2c(n1)n(C13CCC(O)(CC1)C3)c(=O)n2C [Compound 37, 2-((5-fluoro-2-methyl-4-(1-methyl-1H-pyrazol-4-yl)phenyl)amino)-9-(4-hydroxybicyclo[2.2.1]heptan-1-yl)-7-methyl-7,9-dihydro-8H-purin-8-one] |  | ≥ 1 |  | 0.1 to 1 | 0.001 to 0.01 | < 0.001 |  |  |  | 
3 | Cc1cc(-c2cnn(C)c2)ncc1Nc1ncc2c(n1)N(C13CC(F)(C1)C3)C(=O)C21CC1 [Compound 75, 7′-(3-fluorobicyclo[1.1.1]pentan-1-yl)-2′-((4-methyl-6-(1-methyl-1H-pyrazol-4-yl)pyridin-3-yl)amino)spiro[cyclopropane-1,5′-pyrrolo[2,3-d]pyrimidin]-6′(7′H)-one] |  | ≥ 1 | 0.001 to 0.01 | 0.1 to 1 | 0.01 to 0.1 |  |  |  |  | 
4 | Cc1cc2c(cc1Nc1ncc3c(n1)N(C14CCC(O)(CC1)C4)CC(=O)N3C)OCO2 [Compound 52, 8-{4-Hydroxybicyclo[2.2.1]heptan-1-yl}-5-methyl-2-[(6-methyl-2H-1,3-benzodioxol-5-yl)amino]-5,6,7,8-tetrahydropteridin-6-one] | ≥ 1 | ≥ 1 | 0.01 to 0.1 | ≥ 1 |  |  |  |  |  | 
5 | COC12CCC(n3c(=O)n(C)c4cnc(Nc5cc(F)c(-c6cnn(C)c6)cc5C)nc43)(C1)C2 [Compound 39, 2-((5-fluoro-2-methyl-4-(1-methyl-1H-pyrazol-4-yl)phenyl)amino)-9-(4-methoxybicyclo[2.1.1]hexan-1-yl)-7-methyl-7,9-dihydro-8H-purin-8-one] |  | ≥ 1 | 0.01 to 0.1 | 0.1 to 1 | 0.01 to 0.1 |  |  |  |  | 
6 | Cc1cc2nsnc2cc1Nc1ncc2c(n1)n(C13CC(F)(C1)C3)c(=O)n2C [Compound 14, 9-(3-fluorobicyclo[1.1.1]pentan-1-yl)-7-methyl-2-((6-methylbenzo[c][1,2,5]thiadiazol-5-yl)amino)-7,9-dihydro-8H-purin-8-one] |  | ≥ 1 |  | 0.1 to 1 | 0.1 to 1 | < 0.001 |  |  |  | 
7 | Cc1cc2ncnn2cc1Nc1ncc2c(n1)N(C13CC(F)(C1)C3)CC(=O)N2C [Compound 54, 8-{3-Fluorobicyclo[1.1.1]pentan-1-yl}-5-methyl-2-({7-methyl-[1,2,4]triazolo[1,5-a]pyridin-6-yl}amino)-5,6,7,8-tetrahydropteridin-6-one] | ≥ 1 | ≥ 1 | 0.001 to 0.01 | ≥ 1 |  |  |  |  |  | 
8 | Cc1cc2nsnc2cc1Nc1ncc2c(n1)N(C13CC(F)(C1)C3)C(=O)C21CC1 [Compound 73, 7′-(3-fluorobicyclo[1.1.1]pentan-1-yl)-2′-((6-methylbenzo[c][1,2,5]thiadiazol-5-yl)amino)spiro[cyclopropane-1,5′-pyrrolo[2,3-d]pyrimidin]-6′(7′H)-one] | ≥ 1 | ≥ 1 |  | 0.1 to 1 |  | < 0.001 |  |  |  | 
9 | Cc1cc(-c2cnco2)c(F)cc1Nc1ncc2c(n1)n(C13CCC(O)(CC1)C3)c(=O)n2C [Compound 36, 2-((5-fluoro-2-methyl-4-(oxazol-5-yl)phenyl)amino)-9-(4-hydroxybicyclo[2.2.1]heptan-1-yl)-7-methyl-7,9-dihydro-8H-purin-8-one] | < 0.001 | ≥ 1 |  | 0.1 to 1 |  | < 0.001 |  |  |  | 
10 | Cc1cc(-c2cnco2)ncc1Nc1ncc2c(n1)N(C13CC(F)(C1)C3)C(=O)C21CC1 [Compound 74, 7′-(3-fluorobicyclo[1.1.1]pentan-1-yl)-2′-((4-methyl-6-(oxazol-5-yl)pyridin-3-yl)amino)spiro[cyclopropane-1,5′-pyrrolo[2,3-d]pyrimidin]-6′(7′H)-one] |  | ≥ 1 | 0.001 to 0.01 | 0.1 to 1 | 0.01 to 0.1 |  |  |  |  | 
11 | Cc1cc2c(cc1Nc1ncc3c(n1)n(C14CC(F)(C1)C4)c(=O)n3C)OCCO2 [Compound 16, 9-(3-fluorobicyclo[1.1.1]pentan-1-yl)-7-methyl-2-((7-methyl-2,3-dihydrobenzo[b][1,4]dioxin-6-yl)amino)-7,9-dihydro-8H-purin-8-one] |  | ≥ 1 | 0.01 to 0.1 | ≥ 1 | 0.1 to 1 |  |  |  |  | 

Next, values leading:

Row | IC50 (ATM; [3]) [µM] | IC50 ([1]; class symbol) [µM] | IC50 (DNA-PK; class symbol) [µM] | IC50 ([2]; class symbol) [µM] | IC50 (ATM; class symbol) [µM] | IC50 (DNA-PK; [4]) [µM] | IC50 (ATM; read-out: ATM HTRF 10 μM ATP IC50, numeric value) [µM] | IC50 ([1]; numeric value) [µM] | IC50 (DNA-PK; read-out: DNA-PK HotSpot 10 μM ATP IC50, numeric value) [µM] | IC50 ([2]; numeric value) [µM] | Compound
12 | ≥ 1 | 0.1 to 1 | 0.01 to 0.1 | ≥ 1 |  |  |  |  |  |  | Cc1cc2ncnn2cc1Nc1ncc2c(n1)n(C13CC(F)(C1)C3)c(=S)n2C [Compound 34, 9-(3-fluorobicyclo[1.1.1]pentan-1-yl)-7-methyl-2-((7-methyl-[1,2,4]triazolo[1,5-a]pyridin-6-yl)amino)-7,9-dihydro-8H-purine-8-thione]
13 |  | 0.1 to 1 | 0.001 to 0.01 | 0.1 to 1 | 0.1 to 1 |  |  |  |  |  | Cc1cc2ncnn2cc1Nc1ncc2c(n1)N(C13CCC(O)(CC1)C3)CC(=O)N2C [Compound 51, 8-{4-Hydroxybicyclo[2.2.1]heptan-1-yl}-5-methyl-2-({7-methyl-[1,2,4]triazolo[1,5-a]pyridin-6-yl}amino)-5,6,7,8-tetrahydropteridin-6-one]
14 |  | 0.1 to 1 | < 0.001 | 0.1 to 1 | 0.01 to 0.1 |  | 0.036 | 0.214 | 0.00071 | 0.152 | Cc1cc2ncnn2cc1Nc1ncc2c(n1)n(C13CCC(O)(CC1)CC3)c(=O)n2C [Compound 78, 9-(4-hydroxybicyclo[2.2.2]octan-1-yl)-7-methyl-2-((7-methyl-[1,2,4]triazolo[1,5-a]pyridin-6-yl)amino)-7,9-dihydro-8H-purin-8-one]
15 |  | 0.1 to 1 |  | 0.01 to 0.1 | 0.001 to 0.01 | < 0.001 |  |  |  |  | COC12CCC(N3CC(=O)N(C)c4cnc(Nc5cc6cccnc6cc5C)nc43)(CC1)C2 [Compound 65, 8-(4-methoxybicyclo[2.2.1]heptan-1-yl)-5-methyl-2-((7-methylquinolin-6-yl)amino)-7,8-dihydropteridin-6(5H)-one]
16 | ≥ 1 | 0.1 to 1 |  | 0.1 to 1 |  | < 0.001 |  |  |  |  | Cc1cc2c(cc1Nc1ncc3c(n1)N(C14CCC(O)(CC1)C4)C(=O)C31CC1)OCO2 [Compound 68, 7′-(4-hydroxybicyclo[2.2.1]heptan-1-yl)-2′-((6-methylbenzo[d][1,3]dioxol-5-yl)amino)spiro[cyclopropane-1,5′-pyrrolo[2,3-d]pyrimidin]-6′(7′H)-one]
17 |  | 0.1 to 1 |  | 0.1 to 1 | 0.01 to 0.1 | < 0.001 |  |  |  |  | [2H]C([2H])([2H])n1c(=O)n(C23CCC(O)(CC2)C3)c2nc(Nc3cn4ncnc4cc3C)ncc21 [Compound 77, 9-(4-hydroxybicyclo[2.2.1]heptan-1-yl)-7-(methyl-d3)-2-((7-methyl-[1,2,4]triazolo[1,5-a]pyridin-6-yl)amino)-7,9-dihydro-8H-purin-8-one]
18 |  | 0.1 to 1 |  | 0.01 to 0.1 | 0.01 to 0.1 | < 0.001 |  |  |  |  | COC12CCC(n3c(=O)n(C)c4cnc(Nc5cc6nsnc6cc5C)nc43)(CC1)C2 [Compound 8, 9-(4-methoxybicyclo[2.2.1]heptan-1-yl)-7-methyl-2-((6-methylbenzo[c][1,2,5]thiadiazol-5-yl)amino)-7,9-dihydro-8H-purin-8-one]
